Measurements as given in paper PMC6309140, “Synthesis and Evaluation of a New Type of Small Molecule Epigenetic Modulator Containing Imidazo[1,2-b][1,2,4]triazole Motif” (Frontiers in Chemistry, 2018).
“Also recorded” adds a separate entry of the source. Like-named read-outs stand apart in the source and are kept apart here.

Tests used:
[1] = test system: EGFP reporter gene silenced by DNA methylation (B2-17 cells); experiment: Compound effective assay: derepression of EGFP reporter in B2-17 reporter cells (image-based, titration); format: cell-based; conditions: for Emax: 72 h, read-out: Maximal RGFP% (maximal percentage of EGFP+ cells in the dose-response curve); for Emax / EC50 / Maximal RGFP% (maximal percentage of EGFP+ cells in the dose-response curve): B2-17 cells, 72 h treatment; for activity of derepressing the EGFP reporter gene silenced by DNA methylation (in words): compared with hit compound LX-3; for EC50: dose-response of EGFP+ cells, read-out: EC50 (relative half maximal effect concentration)
Source text: (§1) To identify novel small molecules targeting gene repression, we devised an image-based high-throughput screening system using the engineered HEK 293 F cell (termed as B2-17 cells) as report cell line. A chemical library containing 308,251 small molecules was screened in this system. Purposed for unbiased compound screening, this library had been used in a variety of studies (Sun et al., [2012]; Wang et al., [2013]; Dong et al., [2015]; Li et al., [2016]). Hundred and fifty eight compounds which reactivated reporter genes in more than half of cells were selected as hits. Next, we performed titration experiments for all these hits in the B2-17 cell line. The efficacy of each compound was evaluated by its maximal percentage of EGFP^+ cells in the dose-response curve (maximal RGFP) and relative half maximal effect concentration (EC50). The toxicity of the hits was also tested in parallel, measured by number of viable cells in each treatment. The assay is based on quantitative analysis of ATP, an indicator of metabolically active cells. For each compound, we calculated the relative half maximal growth inhibitory concentration (IC50), based on the abovementioned assay.
Procedure for cell culture and establishment of the reporter cell line were reported in our previously published paper (Li et al., [2018]).
Before plating cells, 384-well plates (ViewPlate, PerkinElmer) were coated with PDL (poly-D-lysine, Sigma). For each well, 1,300 B2-17 cells were plated by using a Matrix Wellmate microplate dispenser (Thermo Scientific). Then, 0.25 μL of compound was added to each well by using a versatile pipetting robot, the Biomek FX workstation (Beckman Coulter), to give a final compound concentration of 5 μM. After treatment for 72 h, the cell nuclei were stained by Hoechst 33342 (Sigma) before imaging.
The cells were imaged with Opera LX (PerkinElmer, three views per well by using 10 x (air) objective lens). Images were analyzed with the Columbus system, the mean percentage of EGFP+ cells (RGFP) was obtained to extrapolate the number of EGFP expressing cells and Hoechst-stained nuclei.
For the titration assay, the positive compounds were diluted in DMSO at concentrations ranging from 0.625 to 4 mM. Then, the B2-17 cells were treated by gradient compound and imaged as described before.
For each compound, a dose-response series was generated by using Origin 6.0 Pro software. The dot plot was fit by a DoseResp curve and then the EC50 was calculated.

HEK 293 F cells = experiment: Viability assays (CellTiter-Glo, ATP); format: cell-based; conditions: for IC50: viable cells by ATP quantitation, 3 days incubation, Figure 2 says B2-17 cells, method says HEK 293 F cells, read-out: IC50 (relative half maximal growth inhibitory concentration)
Source text: as §1
HEK 293 F cells were plated in 384-well, flat-bottom, tissue culture dishes (Corning) and treated with compounds, incubated 3 days, and assayed for viability using the CellTiter-Glo Luminescent Cell Viability Assay (Promega) according to the manufacturer's protocol. The […] with an EnSight plate reader (Perkin Elmer). Data were normalized to the untreated control (100% viability). Each treatment was tested in two independent assays, each containing 3 replicates. The titration-viability curves of each compound were also generated by using Origin 6.0 Pro software.

EC50 [1] [µM]	Compound	Emax [1] [%]	activity of derepressing the EGFP reporter gene silenced by DNA methylation (in words) [1]	IC50 (HEK 293 F cells; HEK293F, 72 h) [µM]	Maximal RGFP% (maximal percentage of EGFP+ cells in the dose-response curve) [1] [%]	IC50 (HEK 293 F cells) [µM]	toxicity (in words) (HEK 293 F cells; compared with hit compound LX-3)
8.9	O=C(Cn1c2ccccc2n2nc(-c3ccc(Cl)s3)nc12)c1ccc(Br)cc1 [compound 29, 1-(4-bromophenyl)-2-(2-(5-chlorothiophen-2-yl)-4H-benzo[4,5]imidazo[1,2-b][1,2,4]triazol-4-yl)ethan-1-one]	83	little reduction of potency	13.6	–	–	–
4.5	O=C(Cn1c2ccccc2n2nc(-c3nccs3)nc12)c1ccc(Br)cc1 [22c, 1-(4-bromophenyl)-2-(2-(thiazol-2-yl)-4H-benzo[4,5]imidazo[1,2-b][1,2,4]triazol-4-yl)ethan-1-one]	48	–	5.3	–	–	–
1.9	C=CCc1cc(/C=N/Nc2ccc(Br)cc2)cc(OCC)c1OC [LX-1]	72	–	8.5	–	–	–
6.8	COc1ccccc1-c1nc2n(CC(=O)c3ccc(Br)cc3)c3ccccc3n2n1 [22b, 1-(4-bromophenyl)-2-(2-(2-methoxyphenyl)-4H-benzo[4,5]imidazo[1,2-b][1,2,4]triazol-4-yl)ethan-1-one]	21	decreased significantly or even disappeared	3.3	–	–	–
6.4	O=C(Cn1c2ccccc2n2nc(Cc3ccccc3)nc12)c1ccc(Br)cc1 [22f, 2-(2-benzyl-4H-benzo[4,5]imidazo[1,2-b][1,2,4]triazol-4-yl)-1-(4-bromophenyl)ethan-1-one]	< 22	–	4.7	–	–	–
21.8	O=C(Cn1c2ccc(Br)cc2n2nc(-c3ccc(Br)s3)nc12)c1ccc(Br)cc1 [17c, 2-(7-bromo-2-(5-bromothiophen-2-yl)-4H-benzo[4,5]imidazo[1,2-b][1,2,4]triazol-4-yl)-1-(4-bromophenyl)ethan-1-one]	28	–	3.8	–	–	–
2.2	CCc1ccc(CNc2ccc(CNc3ncn[nH]3)cc2)cc1 [LX-2]	67	–	7.8	–	–	–
29.9	Cc1ccc(-c2ccc(-c3nc4n(CC(=O)c5ccc(Br)cc5)c5ccccc5n4n3)s2)cc1 [compound 25, 1-(4-bromophenyl)-2-(2-(5-(p-tolyl)thiophen-2-yl)-4H-benzo[4,5]imidazo[1,2-b][1,2,4]triazol-4-yl)ethan-1-one]	61	significant decrease or disappearance	10.9	–	–	–

Second part, the compound before the results:

Compound	EC50 [1] [µM]	Emax [1] [%]	activity of derepressing the EGFP reporter gene silenced by DNA methylation (in words) [1]	IC50 (HEK 293 F cells; HEK293F, 72 h) [µM]	Maximal RGFP% (maximal percentage of EGFP+ cells in the dose-response curve) [1] [%]	IC50 (HEK 293 F cells) [µM]	toxicity (in words) (HEK 293 F cells; compared with hit compound LX-3)
N#Cc1ccc(-c2nc3n(CC(=O)c4ccc(Br)cc4)c4ccccc4n3n2)s1 [compound 27, 5-(4-(2-(4-bromophenyl)-2-oxoethyl)-4H-benzo[4,5]imidazo[1,2-b][1,2,4]triazol-2-yl)thiophene-2-carbonitrile]	–	6	significant decrease or disappearance	–	–	–	–
(4-bromophenyl) (2-(thiazol-2-yl)-4H-benzo[4,5] imidazo[1,2-b][1,2,4]triazol-4-yl)methanone [31a]	–	–	disappeared	–	4.0	7.8	–
O=C(Cn1c2ccccc2n2nc(-c3ccccc3)nc12)c1ccc(Br)cc1 [22a, 1-(4-bromophenyl)-2-(2-phenyl-4H-benzo[4,5]imidazo[1,2-b][1,2,4]triazol-4-yl)ethan-1-one]	–	6	decreased significantly or even disappeared	4.4	–	–	–
O=C(Cn1c2ccccc2n2nc(-c3cccs3)nc12)c1nccs1 [9a, 1-(thiazol-2-yl)-2-(2-(thiophen-2-yl)-4H-benzo[4,5]imidazo[1,2-b][1,2,4]triazol-4-yl)ethan-1-one]	4.7	30	–	8.7	–	–	–
O=C(Cn1c2ccccc2n2nc(-c3cccs3)nc12)c1ccco1 [9b, 1-(furan-2-yl)-2-(2-(thiophen-2-yl)-4H-benzo[4,5]imidazo[1,2-b][1,2,4]triazol-4-yl)ethan-1-one]	–	6.6	–	–	–	–	–
COC(=O)c1ccc(C(=O)Cn2c3ccccc3n3nc(-c4cccs4)nc23)cc1 [7d, methyl 4-(2-(2-(thiophen-2-yl)-4H-benzo[4,5]imidazo[1,2-b][1,2,4]triazol-4-yl)acetyl)benzoate]	2.4	73	significantly increased; also recorded: slightly better activity	10.2	–	–	less toxicity
O=C(Cn1c2ccccc2n2nc(-c3cccs3)nc12)c1ccc(C(F)(F)F)cc1 [7e, 2-(2-(thiophen-2-yl)-4H-benzo[4,5]imidazo[1,2-b][1,2,4]triazol-4-yl)-1-(4-(trifluoromethyl)phenyl)ethan-1-one]	3.7	81	remained the same	4.7	–	–	–
O=C(Cn1c2ccccc2n2nc(-c3cccs3)nc12)c1ccc([N+](=O)[O-])cc1 [7c, 1-(4-nitrophenyl)-2-(2-(thiophen-2-yl)-4H-benzo[4,5]imidazo[1,2-b][1,2,4]triazol-4-yl)ethan-1-one]	14.9	41	decreased to some extent	11.9	–	–	–
O=C(Cn1c2ccccc2n2nc(-c3cccs3)nc12)c1ccc(F)cc1F [7f, 1-(2,4-difluorophenyl)-2-(2-(thiophen-2-yl)-4H-benzo[4,5]imidazo[1,2-b][1,2,4]triazol-4-yl)ethan-1-one]	–	16	significantly decreased	17.8	–	–	–
O=C(Cn1c2ccccc2n2nc(-c3cccs3)nc12)c1ccncc1 [9d, 1-(pyridin-4-yl)-2-(2-(thiophen-2-yl)-4H-benzo[4,5]imidazo[1,2-b][1,2,4]triazol-4-yl)ethan-1-one]	13.6	35	–	6.5	–	–	–
3-(4-bromophenyl)-1-(2-(thiazol-2-yl)-4H-benzo[4,5] imidazo[1,2-b][1,2,4]triazol-4-yl)propan-1-one [31c]	–	–	loss of activity	–	9.0	15.9	–
O=C(O)c1ccc(C(=O)Cn2c3ccccc3n3nc(-c4cccs4)nc23)cc1 [7j, 4-(2-(2-(thiophen-2-yl)-4H-benzo[4,5]imidazo[1,2-b][1,2,4]triazol-4-yl)acetyl)benzoic acid]	–	7	decreased to some extent	4.8	–	–	–
CC(C)(C)c1nc2n(CC(=O)c3ccc(Br)cc3)c3ccccc3n2n1 [22g, 1-(4-bromophenyl)-2-(2-(tert-butyl)-4H-benzo[4,5]imidazo[1,2-b][1,2,4]triazol-4-yl)ethan-1-one]	–	–	–	8.3	–	–	–
O=C(Cn1c2ccc(Br)cc2n2nc(-c3cccs3)nc12)c1ccc(Br)cc1 [17a, 2-(7-bromo-2-(thiophen-2-yl)-4H-benzo[4,5]imidazo[1,2-b][1,2,4]triazol-4-yl)-1-(4-bromophenyl)ethan-1-one]	19.4	41	significantly decreased	6.6	–	–	–
O=C(Cn1c2ccccc2n2nc(-c3ccccn3)nc12)c1ccc(Br)cc1 [22e, 1-(4-bromophenyl)-2-(2-(pyridin-2-yl)-4H-benzo[4,5]imidazo[1,2-b][1,2,4]triazol-4-yl)ethan-1-one]	–	6	–	2.8	–	–	–
O=C(Cn1c2ccccc2n2nc(-c3cccs3)nc12)c1cccs1 [9c, 1-(thiophen-2-yl)-2-(2-(thiophen-2-yl)-4H-benzo[4,5]imidazo[1,2-b][1,2,4]triazol-4-yl)ethan-1-one]	2.3	40	–	4.9	–	–	–
